The subject of experiment [1] is Haemonchus contortus. As to the kind of experiment: Method A: Haemonchus contortus L1 larval development/motility screen in microtitre plate. Format: cell-based. Particulars: 96 h, read-out: motility inhibition.
The test system of experiment [2] is microfilaria of Dirofilaria immitis. As to the kind of experiment: Method C: microfilaria of Dirofilaria immitis motility screen. Format: cell-based. Particulars: read-out: inhibition of the microfilaria's motility.

Where two headings read alike, the source gives them in different places.

With `O=C(CC1CCCC1)N1CCN(c2ccnc(O[C@H]3CC[C@H](Nc4ccc([N+](=O)[O-])c(C(F)(F)F)c4)CC3)c2)CC1` [Compound 5, 2-cyclopentyl-1-(4-(2-(4-(4-nitro-3-(trifluoromethyl)phenylamino)cyclohexyloxy)pyridin-4-yl)piperazin-1-yl)ethanone], the inhibition at 5 µM in experiment [1] is ≥ 90%. Moreover, the inhibition at 5 ppm in experiment [2] (24 h) is ≥ 90%.
Regarding `CC(C)(C)CC(=O)N1CCN(c2ccnc(O[C@H]3CC[C@H](Nc4ccc([N+](=O)[O-])c(C(F)(F)F)c4)CC3)c2)CC1` [Compound 25], in experiment [1], the inhibition at 5 µM was ≥ 90%. In addition, the inhibition at 10 µM in experiment [2] (24 h) is ≥ 90%.
For the compound `CCCOC(=O)N1CCN(c2cc(O[C@H]3CC[C@H](Nc4ccc([N+](=O)[O-])c(C(F)(F)F)c4)CC3)ccn2)CC1` [Compound 26], the inhibition at 5 µM in experiment [1] is ≥ 90%. Further, in experiment [2] (24 h), the inhibition at 10 µM is ≥ 90%.
On to `O=C(CC1CC1)N1CCN(c2cc(O[C@H]3CC[C@H](Nc4ccc([N+](=O)[O-])c(C(F)(F)F)c4)CC3)ccn2)CC1` [Compound 28], for which the inhibition at 5 µM in experiment [1] was ≥ 90%. Besides, the inhibition at 10 µM in experiment [2] (24 h) was ≥ 90%.
In the case of `O=C(Oc1ccc(F)cc1)N1CCN(c2ccnc(O[C@H]3CC[C@H](Nc4ccc([N+](=O)[O-])c(C(F)(F)F)c4)CC3)c2)CC1` [Compound 30], in experiment [1], the inhibition at 5 µM is ≥ 90%. In addition, in experiment [2] (24 h), the inhibition at 5 ppm was ≥ 90%.
As for `CC(C)(C)CC(=O)N1CCN(c2cc(O[C@H]3CC[C@H](Nc4ccc([N+](=O)[O-])c(C(F)(F)F)c4)CC3)ccn2)CC1` [Compound 33], the inhibition at 5 µM in experiment [1] is ≥ 90%. Also, the inhibition at 10 µM in experiment [2] (24 h) was ≥ 90%.
As for `CCOC(=O)N1CCN(c2cncc(O[C@H]3CC[C@H](Nc4ccc([N+](=O)[O-])c(C(F)(F)F)c4)CC3)c2)CC1` [Compound 38], in experiment [1], the inhibition at 5 µM was ≥ 90%. For the same compound, in experiment [2] (24 h), the inhibition at 5 ppm was ≥ 90%.
Turning to `CCCC(=O)N1CCN(c2ccnc(O[C@H]3CC[C@H](Nc4ccc([N+](=O)[O-])c(C(F)(F)F)c4)CC3)c2)CC1` [Compound 39], the inhibition at 5 µM in experiment [1] was ≥ 90%. For the same compound, in experiment [2] (24 h), the inhibition at 5 ppm is ≥ 90%.
Take `CCCC(=O)N1CCN(c2cc(O[C@H]3CC[C@H](Nc4ccc([N+](=O)[O-])c(C(F)(F)F)c4)CC3)ccn2)CC1` [Compound 40]: the inhibition at 5 µM in experiment [1] is ≥ 90%. The inhibition at 10 µM in experiment [2] (10 μM, 24 hours) was ≥ 90%.
As to `CCCCN1CCN(c2cc(O[C@H]3CC[C@H](Nc4ccc([N+](=O)[O-])c(C(F)(F)F)c4)CC3)ccn2)CC1` [Compound 41], the inhibition at 5 µM in experiment [1] is ≥ 90%. The inhibition at 10 µM in experiment [2] (24 h) is ≥ 90%.
With `O=C(Cc1ccc(F)cc1)N1CCN(c2cc(O[C@H]3CC[C@H](Nc4ccc([N+](=O)[O-])c(C(F)(F)F)c4)CC3)ccn2)CC1` [Compound 46], in experiment [1], the inhibition at 5 µM is ≥ 90%. Further, the inhibition at 10 µM in experiment [2] (24 h) was ≥ 90%.
As to `O=[N+]([O-])c1ccc(N[C@H]2CC[C@H](Oc3cc(N4CCN(CC5CCCC5)CC4)ccn3)CC2)cc1C(F)(F)F` [Compound 47], in experiment [1], the inhibition at 5 µM is ≥ 90%. The inhibition at 10 µM in experiment [2] (24 h) is ≥ 90%.
With `O=[N+]([O-])c1ccc(N[C@H]2CC[C@H](Oc3cncc(N4CCN(C/C=C/c5ccc(C(F)(F)F)cc5)CC4)c3)CC2)cc1C(F)(F)F` [Compound 48], in experiment [1], the inhibition at 5 µM is ≥ 90%. For the same compound, the inhibition at 5 ppm in experiment [2] (24 h) was ≥ 90%.
For the compound `CC(C)(C)NC(=O)N1CCN(c2cc(O[C@H]3CC[C@H](Nc4ccc([N+](=O)[O-])c(C(F)(F)F)c4)CC3)ccn2)CC1` [Compound 49], the inhibition at 5 µM in experiment [1] was ≥ 90%. Also, the inhibition at 10 µM in experiment [2] (24 h) is ≥ 90%.
Regarding `CCCCN1CCN(c2cncc(O[C@H]3CC[C@H](Nc4ccc([N+](=O)[O-])c(C(F)(F)F)c4)CC3)c2)CC1` [Compound 53], the inhibition at 5 µM in experiment [1] was ≥ 90%. Also, the inhibition at 10 µM in experiment [2] (24 h) was ≥ 90%.
With `CC(C)(C)CN1CCN(c2cncc(O[C@H]3CC[C@H](Nc4ccc([N+](=O)[O-])c(C(F)(F)F)c4)CC3)c2)CC1` [Compound 54], in experiment [1], the inhibition at 5 µM was ≥ 90%. For the same compound, the inhibition at 10 µM in experiment [2] (10 μM, 24 hours) was ≥ 90%.
For `O=C(N1CCN(c2ccnc(O[C@H]3CC[C@H](Nc4ccc([N+](=O)[O-])c(C(F)(F)F)c4)CC3)c2)CC1)C(F)(F)F` [Compound 58], the inhibition at 5 µM in experiment [1] was ≥ 90%. For the same compound, the inhibition at 5 ppm in experiment [2] (5 ppm, 24 hours) was ≥ 90%.
With `CC(C)(C)OC(=O)N1CCN(c2ccnc(O[C@H]3CC[C@H](Nc4ccc(C#N)c(C(F)(F)F)c4)CC3)c2)CC1` [Compound 59], the inhibition at 5 µM in experiment [1] is ≥ 90%. Further, the inhibition at 10 µM in experiment [2] (24 h) was ≥ 90%.
Consider `CCC(=O)N1CCN(c2cc(O[C@H]3CC[C@H](Nc4ccc([N+](=O)[O-])c(C(F)(F)F)c4)CC3)ccn2)CC1` [Compound 60], for which the inhibition at 5 µM in experiment [1] was ≥ 90%. In addition, the inhibition at 10 µM in experiment [2] (10 μM, 24 hours) is ≥ 90%.
On to `O=C(Cc1ccc(C(F)(F)F)cc1)N1CCN(c2ccnc(O[C@H]3CC[C@H](Nc4ccc([N+](=O)[O-])c(C(F)(F)F)c4)CC3)c2)CC1` [Compound 61], for which, in experiment [1], the inhibition at 5 µM is ≥ 90%. For the same compound, the inhibition at 5 ppm in experiment [2] (24 h) was ≥ 90%.
In the case of `CCC(=O)N1CCN(c2cncc(O[C@H]3CC[C@H](Nc4ccc([N+](=O)[O-])c(C(F)(F)F)c4)CC3)c2)CC1` [Compound 64], the inhibition at 5 µM in experiment [1] is ≥ 90%. The inhibition at 5 ppm in experiment [2] (24 h) was ≥ 90%.
With `CC(C)(C)NC(=O)N1CCN(c2ccnc(O[C@H]3CC[C@H](Nc4ccc([N+](=O)[O-])c(C(F)(F)F)c4)CC3)c2)CC1` [Compound 65, N-tert-butyl-4-[2-[(4-[[4-nitro-3-(trifluoromethyl)phenyl]amino]cyclohexyl)oxy]pyridin-4-yl]piper-azine-1-carboxamide], the inhibition at 5 µM in experiment [1] was ≥ 90%. Further, in experiment [2] (24 h), the inhibition at 5 ppm is ≥ 90%.
As for `CC(C)(C)NC(=O)N1CCN(c2cncc(O[C@H]3CC[C@H](Nc4ccc([N+](=O)[O-])c(C(F)(F)F)c4)CC3)c2)CC1` [Compound 66], in experiment [1], the inhibition at 5 µM was ≥ 90%. The inhibition at 5 ppm in experiment [2] (24 h) was ≥ 90%.
With `CC(C)(C)CN1CCN(c2cc(O[C@H]3CC[C@H](Nc4ccc([N+](=O)[O-])c(C(F)(F)F)c4)CC3)ccn2)CC1` [Compound 67], in experiment [1], the inhibition at 5 µM is ≥ 90%. Further, the inhibition at 10 µM in experiment [2] (10 μM, 24 hours) is ≥ 90%.
For the compound `O=[N+]([O-])c1ccc(N[C@H]2CC[C@H](Oc3cc(N4CCN(C(=S)Nc5ccc(C(F)(F)F)cc5)CC4)ccn3)CC2)cc1C(F)(F)F` [Compound 68, 4-[2-[(4-[[4-nitro-3-(trifluoromethyl)phenyl]amino]cyclohexyl)oxy]pyridin-4-yl]-N-[4-(trifluoromethyl)phenyl]piperazine-1-carbothioamide], the inhibition at 5 µM in experiment [1] was ≥ 90%. Further, in experiment [2] (24 h), the inhibition at 5 ppm was ≥ 90%.
On to `O=C(NC1CCCC1)N1CCN(c2ccnc(O[C@H]3CC[C@H](Nc4ccc([N+](=O)[O-])c(C(F)(F)F)c4)CC3)c2)CC1` [Compound 69], for which, in experiment [1], the inhibition at 5 µM was ≥ 90%. Besides, the inhibition at 10 µM in experiment [2] (24 h) was ≥ 90%.
`CCOCCC(=O)N1CCN(c2cc(O[C@H]3CC[C@H](Nc4ccc([N+](=O)[O-])c(C(F)(F)F)c4)CC3)ccn2)CC1` [Compound 70]: the inhibition at 5 µM in experiment [1] was ≥ 90%. Further, the inhibition at 10 µM in experiment [2] (24 h) is ≥ 90%.
Consider `N#Cc1ccc(N[C@H]2CC[C@H](Oc3cncc(N4CCN(C(=O)CC5CCCC5)CC4)c3)CC2)cc1C(F)(F)F` [Compound 180], for which, in experiment [1], the inhibition at 5 µM was ≥ 90%.
The same measure, in the same setting: for `O=C(CC1CCCC1)N1CCN(c2cncc(O[C@H]3CC[C@H](Nc4ccc(S(=O)(=O)C(F)(F)F)cc4)CC3)c2)CC1` [Compound 193] the value was ≥ 90%.

(Values after patent US10597364B2, “Anthelmintic compounds, compositions and method of using thereof” (priority 2015, dated 2020).)
